According to patent US9113629B2, “4-amino-6-(4-substituted-phenyl)-picolinates and 6-amino-2-(4-substituted-phenyl)-pyrimidine-4-carboxylates and their use as herbicides” (DOW AGROSCIENCES LLC, priority 2013, dated 2015):
Read-outs that look alike come from different tables or passages of the source.

Experiments:
[1] = tested on: Key Grass and Sedge Weeds as well as Grass Crops; experiment: Post-emergent Test II herbicidal activity (Table 6); format: in vivo; details: post-emergence, 336 h; for pest or weed control at 70 g/ha: application rate 70 g ai/ha; for pest or weed control at 140 g/ha: application rate 140 g ai/ha
In short: (§1)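 Scoring: visual, 0–100% injury at 14 d versus untreated. Treatment: overhead track spray, 187 L/ha, onto plants at the first–second true leaf stage. Growth: greenhouse, ~15 h light, 23–29 °C day, 22–28 °C night.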

[2] = tested on: Key Broadleaf Weed and Crop Species; experiment: Post-emergent Test II herbicidal activity (Table 5); format: in vivo; details: post-emergence, 336 h, post-emergent, 14 days after application; for pest or weed control at 70 g/ha: 70 g ai/ha; for pest or weed control at 140 g/ha: 140 g ai/ha
In short: as §1

[3] = CYPES: yellow nutsedge (Cyperus esculentus), read-out: Visual Growth Reduction (%) 14 Days After Application, CYPES
[4] = DIGSA: crabgrass (Digitaria sanguinalis), read-out: Visual Growth Reduction (%) 14 Days After Application, DIGSA
[5] = ECHCG: barnyardgrass (Echinochloa crus-galli), read-out: Visual Growth Reduction (%) 14 Days After Application, ECHCG
[6] = ORYSA: rice (Oryza sativa), read-out: Visual Growth Reduction (%) 14 Days After Application, ORYSA
[7] = SETFA: giant foxtail (Setaria faberi), read-out: Visual Growth Reduction (%) 14 Days After Application, SETFA
[8] = SORVU: grain sorghum (Sorghum vulgare), read-out: Visual Growth Reduction (%) 14 Days After Application, SORVU
[9] = TRZSS (wheat, Triticum aestivum), read-out: Visual Growth Reduction (%) 14 Days After Application, TRZSS
[10] = ZEAMX: maize, corn (Zea mays), read-out: Visual Growth Reduction (%) 14 Days After Application, ZEAMX
[11] = ABUTH: velvetleaf (Abutilon theophrasti), read-out: Visual Growth Reduction (%) 14 Days After Application ABUTH
[12] = AMARE: redroot pigweed (Amaranthus retroflexus), read-out: Visual Growth Reduction (%) 14 Days After Application AMARE
[13] = BRSNN: oilseed-rape, canola (Brassica napus), read-out: Visual Growth Reduction (%) 14 Days After Application BRSNN
[14] = CHEAL: lambsquarters (Chenopodium album), read-out: Visual Growth Reduction (%) 14 Days After Application CHEAL
[15] = EPHHL: wild poinsettia (Euphorbia heterophylla), read-out: Visual Growth Reduction (%) 14 Days After Application EPHHL
[16] = HELAN: sunflower (Helianthus annuus), read-out: Visual Growth Reduction (%) 14 Days After Application HELAN
[17] = VIOTR: wild pansy (Viola tricolor), read-out: Visual Growth Reduction (%) 14 Days After Application VIOTR

## COC(=O)c1nc(-c2cc(F)c(C(F)(F)F)cc2F)c(F)c(N)c1Cl [Compound 144]
other
  melting point: 124 to 126 °C
[1]; [3]
  pest or weed control at 70 g/ha: 85 to 94%
  pest or weed control at 140 g/ha: 95 to 100%
[1]; [4]
  pest or weed control at 70 g/ha: 60 to 74%
  pest or weed control at 140 g/ha: 75 to 84%
[1]; [5]
  pest or weed control at 70 g/ha: 45 to 59%
  pest or weed control at 140 g/ha: 75 to 84%
[1]; [6]
  pest or weed control at 70 g/ha: 0 to 29%
  pest or weed control at 140 g/ha: 0 to 29%
[1]; [7]
  pest or weed control at 70 g/ha: 60 to 74%
  pest or weed control at 140 g/ha: 75 to 84%
[1]; [8]
  pest or weed control at 70 g/ha: 75 to 84%
  pest or weed control at 140 g/ha: 85 to 94%
[1]; [9]
  pest or weed control at 70 g/ha: 60 to 74%
  pest or weed control at 140 g/ha: 75 to 84%
[1]; [10]
  pest or weed control at 70 g/ha: 60 to 74%
  pest or weed control at 140 g/ha: 75 to 84%
[2]; [11]
  pest or weed control at 70 g/ha: 85 to 94%
  pest or weed control at 140 g/ha: 95 to 100%
[2]; [12]
  pest or weed control at 70 g/ha: 95 to 100%
  pest or weed control at 140 g/ha: 95 to 100%
[2]; [13]
  pest or weed control at 70 g/ha: 85 to 94%
  pest or weed control at 140 g/ha: 95 to 100%
[2]; [14]
  pest or weed control at 70 g/ha: 85 to 94%
  pest or weed control at 140 g/ha: 95 to 100%
[2]; [15]
  pest or weed control at 70 g/ha: 75 to 84%
  pest or weed control at 140 g/ha: 85 to 94%
[2]; [16]
  pest or weed control at 70 g/ha: 85 to 94%
  pest or weed control at 140 g/ha: 95 to 100%
[2]; [17]
  pest or weed control at 70 g/ha: 75 to 84%
  pest or weed control at 140 g/ha: 85 to 94%
